Data published in PubChem BioAssay AID330 (DTP/NCI, 2004).
Where “and” joins values, the source holds several entries; their conditions need not be identical. Identical values can stand only once. Inconclusive results and toxic doses are left out.

Test system: P388 leukemia ip, CD2F1 mice, survival T/C
Test: NCI In Vivo Anticancer Drug Screen. Data for tumor model P388 Leukemia (intraperitoneal) in CD2F1 (CDF1) mice
Conditions: endpoint: median survival time, higher = longer survival
Method in brief: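 Mice carrying the transplanted tumor received test compound or vehicle. Survival was recorded in each group, and the value is the treated-group measurement divided by that of the vehicle-treated control group.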

[1] = dose: 60.0 mg/kg/injection, schedule: Q01DX005 (ip), vehicle: saline with Tween-80
[2] = dose: 120.0 mg/kg/injection, schedule: Q01DX005 (ip), vehicle: saline with Tween-80
[3] = dose: 50.0 mg/kg/injection, schedule: Q01DX009 (ip), vehicle: saline with Tween-80
[4] = dose: 100.0 mg/kg/injection, schedule: Q01DX009 (ip), vehicle: saline with Tween-80
[5] = dose: 200.0 mg/kg/injection, schedule: Q01DX009 (ip), vehicle: saline with Tween-80
[6] = dose: 50.0 mg/kg/injection, schedule: Q01DX005 (ip), vehicle: saline
[7] = dose: 100.0 mg/kg/injection, schedule: Q01DX005 (ip), vehicle: saline
[8] = dose: 200.0 mg/kg/injection, schedule: Q01DX005 (ip), vehicle: saline

Which results are given for `O=c1oc2ccc3ccccc3c2cc1-n1nnc2ccccc21`?
T/C [1]: 91 % of control; T/C [2]: 90 % of control

Which T/C [3] does the source give for `CCOC(=O)/C(=N/NS(=O)(=O)c1c(C)cc(C)cc1C)c1ccco1` here?
Its T/C is 113 % of control.

And the T/C [4]?
Its T/C is 106 % of control.

What about the T/C [5] of the same compound?
Its T/C is 104 % of control.

With `CCN(CC)c1ccc(C(NCC2CCCCO2)C(Cl)(Cl)Cl)cc1` (centres undefined) as the compound, how does the T/C [6] read?
The T/C was 117 % of control.

What about the T/C [7] of the same compound?
Its T/C is 102 % of control.

What about the T/C [8] of the same compound?
Its T/C is 100 % of control.

How did the T/C (dose: 60.0 mg/kg/injection, schedule: Q01DX005 (ip), vehicle: Klucel (hydroxypropylcellulose) (HPC)) turn out when `O=C(O)/C=C\C(=O)N[C@H]1CCSC1=O` was run?
Its T/C is 94 % of control.

And the T/C (dose: 120.0 mg/kg/injection, schedule: Q01DX005 (ip), vehicle: Klucel (hydroxypropylcellulose) (HPC))?
Its T/C is 94 % of control.

And the T/C (dose: 240.0 mg/kg/injection, schedule: Q01DX005 (ip), vehicle: Klucel (hydroxypropylcellulose) (HPC))?
The T/C was 90 % of control.

What does the source list for `CN1C2CCC1C(Br)C(=O)C2` (centres undefined)?
T/C [6]: 100 % of control; T/C [7]: 108 % of control (2×) and 109 % of control; T/C [8]: 118 % of control

Which T/C [6] does the source give for `CN(C)CCN(N)CCN(C)C` here?
The T/C was 94 % of control.

And the T/C [7]?
Its T/C is 105 % of control.

What about the T/C [8] of the same compound?
Its T/C is 100 % of control.

With `CC(O)CC1(c2ccccc2)CNC(=O)NC1=O` (centres undefined) as the compound, how does the T/C (dose: 25.0 mg/kg/injection, schedule: Q01DX001 (ip), vehicle: Klucel (hydroxypropylcellulose) (HPC)) read?
The T/C was 94 % of control.

And the T/C (dose: 50.0 mg/kg/injection, schedule: Q01DX001 (ip), vehicle: Klucel (hydroxypropylcellulose) (HPC))?
The T/C was 94 % of control.

What about the T/C (dose: 100.0 mg/kg/injection, schedule: Q01DX001 (ip), vehicle: Klucel (hydroxypropylcellulose) (HPC)) of the same compound?
The T/C was 99 % of control and 106 % of control.

What about the T/C (dose: 400.0 mg/kg/injection, schedule: Q01DX001 (ip), vehicle: Klucel (hydroxypropylcellulose) (HPC)) of the same compound?
Its T/C is 92 % of control.

How did the T/C (dose: 100.0 mg/kg/injection, schedule: Q01DX009 (ip), vehicle: Klucel (hydroxypropylcellulose) (HPC)) turn out when `Cc1ccc(S(=O)(=O)OCC2CCCC2COS(=O)(=O)c2ccc(C)cc2)cc1` (centres undefined) was run?
The T/C was 100 % of control.

What about the T/C (dose: 200.0 mg/kg/injection, schedule: Q01DX009 (ip), vehicle: Klucel (hydroxypropylcellulose) (HPC)) of the same compound?
Its T/C is 106 % of control.

What about the T/C (dose: 400.0 mg/kg/injection, schedule: Q01DX009 (ip), vehicle: Klucel (hydroxypropylcellulose) (HPC)) of the same compound?
The T/C was 105 % of control.

With `Cc1cc(N)c(C)c2c1[nH]c1ccc(Br)cc12` as the compound, how does the T/C (dose: 50.0 mg/kg/injection, schedule: Q01DX005 (ip), vehicle: saline with Tween-80) read?
The T/C was 94 % of control.

What about the T/C (dose: 100.0 mg/kg/injection, schedule: Q01DX005 (ip), vehicle: saline with Tween-80) of the same compound?
Its T/C is 93 % of control.

What about the T/C (dose: 200.0 mg/kg/injection, schedule: Q01DX005 (ip), vehicle: saline with Tween-80) of the same compound?
Its T/C is 89 % of control.

With `CCOC(=O)c1cc([N+](=O)[O-])c[nH]1` as the compound, how does the T/C [3] read?
The T/C was 97 % of control.

What about the T/C [4] of the same compound?
Its T/C is 96 % of control.

What about the T/C [5] of the same compound?
Its T/C is 95 % of control.

What about the T/C (dose: 400.0 mg/kg/injection, schedule: Q01DX009 (ip), vehicle: saline with Tween-80) of the same compound?
Its T/C is 89 % of control.

With `COc1ccc(CC2(C(=O)O)NCCS2)cc1OC` (centres undefined) as the compound, how does the T/C (dose: 100.0 mg/kg/injection, schedule: Q04DX003 (ip), vehicle: Klucel (hydroxypropylcellulose) (HPC)) read?
The T/C was 101 % of control.

What about the T/C (dose: 200.0 mg/kg/injection, schedule: Q04DX003 (ip), vehicle: Klucel (hydroxypropylcellulose) (HPC)) of the same compound?
Its T/C is 98 % of control.

What does the source list for `CC[C@H]1OC(=O)[C@H](C)[C@@H](OC2CC(C)(OC)C(O)C(C)O2)[C@H](C)[C@@H](OC2OC(C)CC(N(C)C)C2OC(=O)CCC2CCCC2)[C@](C)(O)C[C@@H](C)C(=O)[C@H](C)[C@@H](O)[C@]1(C)O` (some centres undefined)?
T/C (dose: 50.0 mg/kg/injection, schedule: Q01DX005 (ip), vehicle: Klucel (hydroxypropylcellulose) (HPC)): 96 % of control; T/C (dose: 100.0 mg/kg/injection, schedule: Q01DX005 (ip), vehicle: Klucel (hydroxypropylcellulose) (HPC)): 100 % of control; T/C (dose: 200.0 mg/kg/injection, schedule: Q01DX005 (ip), vehicle: Klucel (hydroxypropylcellulose) (HPC)): 93 % of control

What does the source list for `COC(=O)c1nc(SC)[nH]c1CC#N`?
T/C (dose: 100.0 mg/kg/injection, schedule: Q04DX002 (ip), vehicle: saline with Tween-80): 108 % of control; T/C (dose: 200.0 mg/kg/injection, schedule: Q04DX002 (ip), vehicle: saline with Tween-80): 98 % of control; T/C (dose: 400.0 mg/kg/injection, schedule: Q04DX002 (ip), vehicle: saline with Tween-80): 99 % of control

Which results are given for `N#Cc1c(C(=O)NOCCCc2ccccc2)cc(-c2ccc(F)cc2)[nH]c1=O`?
T/C [1]: 107 % of control; T/C [2]: 103 % of control

Which T/C (dose: 50.0 mg/kg/injection, schedule: Q04DX002 (ip), vehicle: Klucel (hydroxypropylcellulose) (HPC)) does the source give for `Nc1ccc(S(=O)(=O)Nc2cccc3[nH]c(=O)oc23)cc1` here?
Its T/C is 101 % of control.

And the T/C (dose: 100.0 mg/kg/injection, schedule: Q04DX002 (ip), vehicle: Klucel (hydroxypropylcellulose) (HPC))?
Its T/C is 99 % of control.

What about the T/C (dose: 200.0 mg/kg/injection, schedule: Q04DX002 (ip), vehicle: Klucel (hydroxypropylcellulose) (HPC)) of the same compound?
The T/C was 100 % of control.
